Source: patent US20150105252A1, “SUBSTITUTED PYRAZOLES AS HERBICIDES” (E I DU PONT DE NEMOURS AND COMPANY, priority 2013, published 2015)

Assays:
morningglory = experiment: Test A preemergence; assay type: in vivo, Ipomoea spp.; conditions: preemergence; for Morningglory plant response rating (0 to 100 scale): visual injury approx. 10 days after treatment
Procedure, shortened: (§1)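 Greenhouse test in loam soil/sand blend; compounds formulated in non-phytotoxic solvent with surfactant, applied as preemergence directed soil spray or postemergence to plants 2–10 cm tall at one- to two-leaf stage. Injury rated visually versus untreated controls after approximately 10 days on a 0 (no effect) to 100 (complete control) scale.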

galium = experiment: Test C postemergence; assay type: in vivo, Galium aparine
Procedure, shortened: (§2)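 Seeds were sown in a loam soil–sand blend and sprayed preemergence with compounds formulated in a non-phytotoxic solvent mixture containing surfactant. Postemergence plants, grown in peat/vermiculite medium to 2–18 cm (1- to 4-leaf stage), received the same formulation. After 13 to 15 days in a greenhouse, injury was rated visually against controls (0 = no effect, 100 = complete control).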

barnyardgrass = experiment: Test B flood; assay type: in vivo, Echinochloa crus-galli; conditions: 250 g ai/ha, visual rating on 0 to 100 scale (0 no effect, 100 complete control), 13 to 15 days
Procedure, shortened: (§3)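 Flooded-pot test: compound dosed into 3 cm of standing water above soil when plants had two leaves. Visual control ratings (0–100) versus untreated plants after 13–15 d.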

waterhemp = experiment: Test C postemergence; assay type: in vivo, Amaranthus rudis
Description: (§4) Seeds of plant species selected from blackgrass (Alopecurus myosuroides), ryegrass, Italian (Italian ryegrass, Lolium multiflorum), wheat (winter wheat, Triticum aestivum), galium (catchweed bedstraw, Galium aparine), corn (Zea mays), crabgrass, large (large crabgrass, Digitaria sanguinalis), foxtail, giant (giant foxtail, Setaria faberii), johnsongrass (Sorghum halepense), lambsquarters (Chenopodium album), morningglory (Ipomoea coccinea), nutsedge, yellow (yellow nutsedge, Cyperus esculentus), pigweed (redroot pigweed, Amaranthus retroflexus), ragweed (common ragweed, Ambrosia elation), soybean (Glycine max), barnyardgrass (Echinochloa crus-galli), oilseed rape (Brassica napus), waterhemp (common waterhemp, Amaranthus rudis), oat, wild (wild oat, Avena fatua), kochia (Kochia scoparia), Surinam grass (Brachiaria decumbens), foxtail, green (green foxtail, Setaria viridis), goosegrass (Eleusine indica), bromegrass, downy (downy bromegrass, Bromus tectorum), nightshade (eastern black nightshade, Solanum ptycanthum), cocklebur (common cocklebur, Xanthium strumarium), cupgrass, woolly (woolly cupgrass, Eriochloa villosa), bermudagrass (Cynodon dactylon), sunflower, (common oilseed sunflower, Helianthus annuus), Russian thistle (Salsola kali), and velvetleaf (Abutilon theophrasti) were planted into a blend of loam soil and sand and treated preemergence with test chemicals formulated in a non-phytotoxic solvent mixture which included a surfactant.
(§5) At the same time, plants selected from these crop and weed species and also chickweed (common chickweed, Stellaria media), canarygrass (littleseed canarygrass, Phalaris minor), and deadnettle (henbit deadnettle, Lamium amplexicaule), were planted in pots containing Redi-Earth® planting medium (Scotts Company, 14111 Scottslawn Road, Marysville, Ohio 43041) comprising spaghnum peat moss, vermiculite, wetting agent and starter nutrients and treated with postemergence applications of test chemicals formulated in the same manner. Plants ranged in height from 2 to 18 cm (1- to 4-leaf stage) for postemergence treatments. Treated plants and controls were maintained in a greenhouse for 13 to 15 days, after which time all species were compared to controls and visually evaluated. Plant response ratings, summarized in Table C, are based on a scale of 0 to 100 where 0 is no effect and 100 is complete control. A dash (-) response means no test result.

ducksalad = experiment: Test B flood; assay type: in vivo, Heteranthera limosa; conditions: 250 g ai/ha, visual rating on 0 to 100 scale (0 no effect, 100 complete control), 13 to 15 days
Procedure, shortened: as §3

crabgrass, large = experiment: Test A preemergence; assay type: in vivo, Digitaria sanguinalis; conditions: preemergence; for Crabgrass, Large plant response rating (0 to 100 scale): visual injury approx. 10 days after treatment
Procedure, shortened: as §1

foxtail, giant = experiment: Test A postemergence; assay type: in vivo, Setaria faberii
Procedure, shortened: as §1

pigweed = experiment: Test C postemergence; assay type: in vivo, Amaranthus retroflexus
Procedure, shortened: as §2

corn [1] = experiment: Test C postemergence; assay type: in vivo, Zea mays; conditions: postemergence
Procedure, shortened: as §2

sedge, umbrella = experiment: Test B flood; assay type: in vivo, Cyperus difformis; conditions: 250 g ai/ha, visual rating on 0 to 100 scale (0 no effect, 100 complete control), 13 to 15 days
Procedure, shortened: as §3

ragweed = experiment: Test C postemergence; assay type: in vivo, Ambrosia elation
Procedure, shortened: as §2

corn [2] = experiment: Test A preemergence; assay type: in vivo, Zea mays; conditions: preemergence; for Corn plant response rating (0 to 100 scale): visual injury approx. 10 days after treatment
Procedure, shortened: as §1

velvetleaf = experiment: Test A preemergence; assay type: in vivo, Abutilon theophrasti; conditions: preemergence; for Velvetleaf plant response rating (0 to 100 scale): visual injury approx. 10 days after treatment
Procedure, shortened: as §1

ryegrass, Italian = experiment: Test C preemergence; assay type: in vivo, Lolium multiflorum
Description: as §4, §5

[3] = 125 g ai/ha, visual injury, 0 to 100 scale, approx. 10 days
[4] = 500 g ai/ha, visual injury after approx. 10 days, 0 to 100 scale (0 no effect, 100 complete control)
[5] = Postemergence, 31 g ai/ha, visually evaluated after 13 to 15 days
[6] = postemergence, 62 g ai/ha, scale 0 to 100
[7] = postemergence, 125 g ai/ha, scale 0 to 100, 0 no effect, 100 complete control
[8] = postemergence, 250 g ai/ha, scale 0 to 100 (0 no effect, 100 complete control)
[9] = postemergence, 125 g ai/ha, about 10 days, visual rating on 0 to 100 scale (0 no effect, 100 complete control)
[10] = Postemergence, 500 g ai/ha, 0 to 100 scale (0 no effect, 100 complete control)
[11] = Preemergence, 16 g ai/ha, scale 0 to 100
[12] = preemergence, 31 g ai/ha, visual rating, scale 0 to 100 (0 no effect, 100 complete control), 13 to 15 days
[13] = preemergence, 62 g ai/ha, scale 0 to 100 (0 no effect, 100 complete control), 13 to 15 days
[14] = preemergence, 125 g ai/ha, 13 to 15 days, scale 0 to 100, 0 = no effect, 100 = complete control
[15] = preemergence, 250 g ai/ha, scale 0 to 100, 0 is no effect, 100 is complete control

Row | Structure (SMILES) | Morningglory plant response rating (morningglory; [3]) | Morningglory plant response rating (morningglory; [4]) | Plant response rating, Barnyardgrass (barnyardgrass) | Plant response rating, Ducksalad (ducksalad) | Crabgrass, Large plant response rating (crabgrass, large; [3]) | Crabgrass, Large plant response rating (crabgrass, large; [4]) | Foxtail, Giant plant response rating (foxtail, giant; [9]) | Plant response rating, Sedge, Umbrella (sedge, umbrella) | Corn plant response rating (corn [2]; [3]) | Corn plant response rating (corn [2]; [4]) | Velvetleaf plant response rating (velvetleaf; [4]) | Foxtail, Giant plant response rating (foxtail, giant; [10]) | Ryegrass, Italian plant response rating (ryegrass, Italian; [12]) | Morningglory plant response rating (0 to 100 scale) (morningglory; 125 g ai/ha) | Crabgrass, Large plant response rating (0 to 100 scale) (crabgrass, large; 125 g ai/ha) | Ryegrass, Italian plant response rating (ryegrass, Italian; [13]) | Plant response rating, Ryegrass, Italian (ryegrass, Italian; [14]) | Ryegrass, Italian plant response rating (ryegrass, Italian; [15]) | Corn plant response rating (0 to 100 scale) (corn [2]; 125 g ai/ha) | Velvetleaf plant response rating (0 to 100 scale) (velvetleaf; 125 g ai/ha) | also measured
1 | CCc1cc(-c2ccc(C(F)(F)F)cc2)nn1Cc1ccnc(C(F)(F)F)c1 [Compound 110] | 90 | 100 | 30 | 80 | 100 | 100 | 90 | 80 | 80 | 90 | 100 | – | – | – | – | – | – | – | – | – | Plant response rating (scale of 0 to 100 where 0 is no effect and 100 is complete control), Galium (galium; [5]): 60; Galium plant response rating (galium; [6]): 60; Plant response rating, Galium (galium; [7]): 90; Plant response rating (scale of 0 to 100 where 0 is no effect and 100 is complete control), Waterhemp (waterhemp; [5]): 100; Waterhemp plant response rating (waterhemp; [6]): 100; Plant response rating, Waterhemp (waterhemp; [8]): 100; Plant response rating, Waterhemp (waterhemp; [7]): 100; Foxtail, Giant plant response rating (foxtail, giant; Postemergence, 500 g ai/ha, visual rating after approx. 10 days, 0 to 100 scale (0 no effect, 100 complete control)): 100; Plant response rating (scale of 0 to 100 where 0 is no effect and 100 is complete control), Pigweed (pigweed; [5]): 85; Pigweed plant response rating (pigweed; [6]): 85; Plant response rating, Pigweed (pigweed; [8]): 98; Plant response rating, Pigweed (pigweed; [7]): 90; Corn plant response rating (corn [1]; 62 g ai/ha, scale 0 to 100): 15; Plant response rating, Corn (corn [1]; 250 g ai/ha, scale 0 to 100 (0 no effect, 100 complete control)): 25; Plant response rating, Corn (corn [1]; 125 g ai/ha, scale 0 to 100, 0 no effect, 100 complete control): 25; Plant response rating (scale of 0 to 100 where 0 is no effect and 100 is complete control), Ragweed (ragweed; [5]): 50; Ragweed plant response rating (ragweed; [6]): 80; Plant response rating, Ragweed (ragweed; [8]): 80; Plant response rating, Ragweed (ragweed; [7]): 80; Velvetleaf plant response rating (velvetleaf; [3]): 90
2 | CCOc1cc(C(=O)NCC(F)(F)F)nn1Cc1cc(C(F)(F)F)nn1C [Compound 140] | 80 | 100 | 55 | 95 | 100 | 100 | 80 | 95 | 10 | 80 | 100 | 90 | 55 | – | – | – | – | – | – | – | Plant response rating, Ryegrass, Italian (ryegrass, Italian; Preemergence, 4 g ai/ha, scale 0 to 100): 0; Plant response rating, Ryegrass, Italian (ryegrass, Italian; Preemergence, 8 g ai/ha, scale 0 to 100): 5; Plant response rating, Ryegrass, Italian (ryegrass, Italian; [11]): 10; Velvetleaf plant response rating (velvetleaf; [3]): 60
3 | O=C(NCC(F)(F)F)c1cc(CCF)n(Cc2ccnc(C(F)(F)F)c2)n1 [Compound 175] | – | 100 | 35 | 100 | – | 100 | 80 | 85 | – | 80 | 100 | 90 | 30 | 100 | 100 | 85 | 90 | 90 | 50 | 40 | –
4 | O=C(NC1CC1)c1cc(CCF)n(Cc2ccnc(C(F)(F)F)c2)n1 [Compound 176] | – | 100 | 35 | 100 | – | 100 | 80 | 80 | – | 90 | 90 | 90 | 5 | 80 | 100 | 10 | 70 | 85 | 10 | 50 | –
5 | CCNC(=O)c1cc(CCF)n(Cc2ccnc(C(F)(F)F)c2)n1 [Compound 178] | – | 100 | 20 | 95 | – | 100 | 70 | 85 | – | 50 | 90 | 90 | 5 | 80 | 100 | 5 | 15 | – | 0 | 30 | Plant response rating, Ryegrass, Italian (ryegrass, Italian; [11]): 0
6 | CCCc1cc(C(=O)NOC(C)C)nn1Cc1cc(C(F)(F)F)nn1C [Compound 203] | – | – | 25 | 95 | – | 100 | 80 | 95 | – | 80 | – | 90 | 5 | 10 | 100 | 60 | 90 | 90 | 20 | 30 | –
